Counter-ions that a name gives are not always drawn.

As usually defined, the solubility is the concentration that dissolves in the medium under given conditions. Higher therefore signals much dissolved substance.

The nature of this series: solubility of the drug. The class given is physicochemical.

`Fc1ccc([C@@H]2CCNC[C@H]2COc2ccc3c(c2)OCO3)cc1` [Paroxetine hydrochloride] returned a solubility of 5400 µg/mL.

The values above are taken from patent US20070298106A1, “Sustained Release Formulation Containing Selective Serotonin Reuptake Inhibitor and Method for the Preparation Thereof” (Amorepacific Corporation, priority 2004, published 2007).
